Reference: ChEMBL document CHEMBL4014306, “Pyrazolopyrimidines as Potent Stimulators for Transient Receptor Potential Canonical 3/6/7 Channels” (J Med Chem, 2017)
Calls of active or inactive are those of the source. The calls are words filed in the database; no cut-off is given here.

How the values were obtained:
[1] = molecular target: T1, Transient receptor potential cation channel subfamily V member 3 (Mus musculus) (UniProt Q8K424); assay: Agonist activity at mouse TRPV3 expressed in HEK293 cells assessed as increase in intracellular calcium level at 33 uM measured for 2.5 mins by Fluo-8-AM dye based fluorescence assay; format: cell-based
T1 sequence (whole entry): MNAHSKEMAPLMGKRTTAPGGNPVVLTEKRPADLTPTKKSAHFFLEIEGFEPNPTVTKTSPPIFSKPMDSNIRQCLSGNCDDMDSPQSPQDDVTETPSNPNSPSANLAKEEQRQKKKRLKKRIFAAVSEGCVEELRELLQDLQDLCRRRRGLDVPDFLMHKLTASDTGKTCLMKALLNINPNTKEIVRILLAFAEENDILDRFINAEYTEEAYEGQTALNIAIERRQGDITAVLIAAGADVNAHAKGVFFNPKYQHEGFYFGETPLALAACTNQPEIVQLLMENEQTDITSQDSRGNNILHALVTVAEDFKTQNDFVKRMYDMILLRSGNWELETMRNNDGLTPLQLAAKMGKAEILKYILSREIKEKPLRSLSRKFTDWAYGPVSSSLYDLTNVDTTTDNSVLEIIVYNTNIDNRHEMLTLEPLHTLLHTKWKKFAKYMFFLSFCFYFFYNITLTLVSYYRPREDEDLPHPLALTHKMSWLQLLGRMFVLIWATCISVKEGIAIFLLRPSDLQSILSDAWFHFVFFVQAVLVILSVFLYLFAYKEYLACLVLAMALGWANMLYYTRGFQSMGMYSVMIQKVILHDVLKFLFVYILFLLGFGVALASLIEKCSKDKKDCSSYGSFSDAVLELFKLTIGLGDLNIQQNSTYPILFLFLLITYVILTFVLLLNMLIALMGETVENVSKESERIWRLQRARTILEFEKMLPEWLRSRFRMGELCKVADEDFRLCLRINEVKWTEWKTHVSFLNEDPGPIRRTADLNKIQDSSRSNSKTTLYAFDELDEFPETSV

[2] = molecular target: T2, Short transient receptor potential channel 6 (Mus musculus, UniProt Q61143); assay: Agonist activity at mouse TRPC6 expressed in HEK293 cells co-expressing Gq11-PLCbeta fused M5 receptor assessed as increase in intracellular calcium level measured for 2.5 mins by Fluo-8-AM dye-based fluorescence assay; format: cell-based; conditions: read-out: EC50
T2 sequence (Q61143 whole entry): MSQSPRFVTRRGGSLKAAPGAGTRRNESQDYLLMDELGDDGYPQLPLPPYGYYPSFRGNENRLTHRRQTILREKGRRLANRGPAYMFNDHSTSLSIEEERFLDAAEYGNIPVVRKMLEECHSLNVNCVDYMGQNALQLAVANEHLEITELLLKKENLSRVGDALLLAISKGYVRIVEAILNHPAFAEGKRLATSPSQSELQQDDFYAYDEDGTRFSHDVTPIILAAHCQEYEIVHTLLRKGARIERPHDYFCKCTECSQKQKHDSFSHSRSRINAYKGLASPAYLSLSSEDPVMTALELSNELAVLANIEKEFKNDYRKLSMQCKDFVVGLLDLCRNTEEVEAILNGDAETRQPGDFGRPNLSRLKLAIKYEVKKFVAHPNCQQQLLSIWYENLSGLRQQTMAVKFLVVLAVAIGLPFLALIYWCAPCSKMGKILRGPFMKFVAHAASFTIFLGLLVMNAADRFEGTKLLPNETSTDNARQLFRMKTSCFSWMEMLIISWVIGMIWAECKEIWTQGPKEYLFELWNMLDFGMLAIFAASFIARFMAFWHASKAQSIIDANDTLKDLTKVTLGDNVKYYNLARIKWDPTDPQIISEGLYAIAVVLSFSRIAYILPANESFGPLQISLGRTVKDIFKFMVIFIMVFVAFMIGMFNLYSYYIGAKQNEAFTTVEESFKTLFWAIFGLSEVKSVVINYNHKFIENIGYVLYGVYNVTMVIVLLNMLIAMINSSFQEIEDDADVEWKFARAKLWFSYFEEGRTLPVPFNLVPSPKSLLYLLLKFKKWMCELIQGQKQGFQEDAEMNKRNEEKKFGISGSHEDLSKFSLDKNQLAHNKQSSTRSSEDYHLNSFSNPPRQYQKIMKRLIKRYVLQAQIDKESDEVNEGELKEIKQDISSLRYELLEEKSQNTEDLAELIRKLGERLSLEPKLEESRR

[3] = molecular target: Transient receptor potential cation channel subfamily M member 8 (Mus musculus) (UniProt Q8R4D5); assay: Inhibition of mouse TRPM8 expressed in HEK293 cells assessed as decrease in menthol-evoked increase in intracellular calcium level at 22 uM preincubated for 2 mins followed by menthol addition measured for 2.5 mins by Fluo8-AM dye-based fluorescence assay relative to control
[4] = molecular target: Transient receptor potential cation channel subfamily A member 1 (Homo sapiens) (UniProt O75762); assay: Agonist activity at human TRPA1 expressed in HEK293 cells assessed as increase in intracellular calcium level at 33 uM measured for 2.5 mins by Fluo-8-AM dye based fluorescence assay; format: cell-based
[5] = molecular target: Transient receptor potential cation channel subfamily V member 4 (Homo sapiens) (UniProt Q9HBA0); assay: Agonist activity at human TRPV4 expressed in HEK293 cells assessed as increase in intracellular calcium level at 33 uM measured for 2.5 mins by Fluo-8-AM dye based fluorescence assay; format: cell-based
Transient receptor potential cation channel subfamily V member 4 (Homo sapiens), sequence (Q9HBA0 whole entry): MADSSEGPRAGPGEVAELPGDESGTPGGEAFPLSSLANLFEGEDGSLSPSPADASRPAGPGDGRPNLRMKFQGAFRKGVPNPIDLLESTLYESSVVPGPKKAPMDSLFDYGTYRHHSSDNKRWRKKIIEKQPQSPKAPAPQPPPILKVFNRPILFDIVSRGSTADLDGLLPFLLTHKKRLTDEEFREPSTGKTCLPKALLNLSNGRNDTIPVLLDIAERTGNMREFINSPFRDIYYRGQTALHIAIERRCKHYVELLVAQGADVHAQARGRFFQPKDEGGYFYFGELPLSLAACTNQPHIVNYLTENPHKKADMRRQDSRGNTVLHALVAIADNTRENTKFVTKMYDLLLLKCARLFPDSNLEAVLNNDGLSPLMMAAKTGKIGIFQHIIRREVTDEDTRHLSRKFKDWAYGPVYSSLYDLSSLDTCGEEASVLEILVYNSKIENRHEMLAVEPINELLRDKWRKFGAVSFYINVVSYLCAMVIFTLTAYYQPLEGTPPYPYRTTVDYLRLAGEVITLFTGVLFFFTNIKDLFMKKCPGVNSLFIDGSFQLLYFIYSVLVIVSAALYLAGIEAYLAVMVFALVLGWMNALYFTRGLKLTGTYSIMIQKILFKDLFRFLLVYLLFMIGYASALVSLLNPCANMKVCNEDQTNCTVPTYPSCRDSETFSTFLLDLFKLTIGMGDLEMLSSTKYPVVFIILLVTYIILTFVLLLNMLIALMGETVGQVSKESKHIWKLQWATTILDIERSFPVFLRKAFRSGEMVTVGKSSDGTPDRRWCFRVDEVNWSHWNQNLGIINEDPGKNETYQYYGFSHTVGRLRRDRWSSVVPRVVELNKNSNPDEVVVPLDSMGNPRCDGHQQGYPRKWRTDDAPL

Transient receptor potential cation channel subfamily M member 8 (Mus musculus), sequence (Q8R4D5 whole entry): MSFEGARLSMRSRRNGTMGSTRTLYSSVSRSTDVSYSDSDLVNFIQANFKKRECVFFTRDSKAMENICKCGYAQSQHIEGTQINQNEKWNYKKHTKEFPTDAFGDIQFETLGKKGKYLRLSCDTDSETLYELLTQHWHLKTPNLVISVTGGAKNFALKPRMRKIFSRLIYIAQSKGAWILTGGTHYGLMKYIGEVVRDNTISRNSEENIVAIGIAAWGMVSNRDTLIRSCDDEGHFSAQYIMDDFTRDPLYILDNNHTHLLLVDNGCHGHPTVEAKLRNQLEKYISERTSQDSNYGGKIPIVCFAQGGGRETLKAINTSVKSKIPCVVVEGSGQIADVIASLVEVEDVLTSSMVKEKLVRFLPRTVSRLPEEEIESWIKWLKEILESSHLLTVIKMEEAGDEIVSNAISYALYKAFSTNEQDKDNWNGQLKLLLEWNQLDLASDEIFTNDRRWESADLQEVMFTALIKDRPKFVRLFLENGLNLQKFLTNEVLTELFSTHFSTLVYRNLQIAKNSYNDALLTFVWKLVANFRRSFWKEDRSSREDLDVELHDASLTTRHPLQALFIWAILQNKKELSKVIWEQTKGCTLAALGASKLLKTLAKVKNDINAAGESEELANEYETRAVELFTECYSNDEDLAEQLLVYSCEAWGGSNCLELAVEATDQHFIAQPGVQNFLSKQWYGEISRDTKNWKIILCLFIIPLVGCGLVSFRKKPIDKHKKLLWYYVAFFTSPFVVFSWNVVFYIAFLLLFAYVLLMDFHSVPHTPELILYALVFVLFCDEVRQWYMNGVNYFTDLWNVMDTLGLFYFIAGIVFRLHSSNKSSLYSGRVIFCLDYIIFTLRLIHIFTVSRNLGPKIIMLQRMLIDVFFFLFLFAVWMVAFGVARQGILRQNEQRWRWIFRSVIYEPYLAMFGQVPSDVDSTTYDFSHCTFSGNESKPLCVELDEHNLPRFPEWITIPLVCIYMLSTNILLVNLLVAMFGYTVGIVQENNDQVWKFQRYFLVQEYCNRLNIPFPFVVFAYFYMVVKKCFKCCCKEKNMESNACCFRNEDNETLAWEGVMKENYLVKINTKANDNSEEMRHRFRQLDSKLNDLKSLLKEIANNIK
Transient receptor potential cation channel subfamily A member 1 (Homo sapiens), sequence (O75762 whole entry): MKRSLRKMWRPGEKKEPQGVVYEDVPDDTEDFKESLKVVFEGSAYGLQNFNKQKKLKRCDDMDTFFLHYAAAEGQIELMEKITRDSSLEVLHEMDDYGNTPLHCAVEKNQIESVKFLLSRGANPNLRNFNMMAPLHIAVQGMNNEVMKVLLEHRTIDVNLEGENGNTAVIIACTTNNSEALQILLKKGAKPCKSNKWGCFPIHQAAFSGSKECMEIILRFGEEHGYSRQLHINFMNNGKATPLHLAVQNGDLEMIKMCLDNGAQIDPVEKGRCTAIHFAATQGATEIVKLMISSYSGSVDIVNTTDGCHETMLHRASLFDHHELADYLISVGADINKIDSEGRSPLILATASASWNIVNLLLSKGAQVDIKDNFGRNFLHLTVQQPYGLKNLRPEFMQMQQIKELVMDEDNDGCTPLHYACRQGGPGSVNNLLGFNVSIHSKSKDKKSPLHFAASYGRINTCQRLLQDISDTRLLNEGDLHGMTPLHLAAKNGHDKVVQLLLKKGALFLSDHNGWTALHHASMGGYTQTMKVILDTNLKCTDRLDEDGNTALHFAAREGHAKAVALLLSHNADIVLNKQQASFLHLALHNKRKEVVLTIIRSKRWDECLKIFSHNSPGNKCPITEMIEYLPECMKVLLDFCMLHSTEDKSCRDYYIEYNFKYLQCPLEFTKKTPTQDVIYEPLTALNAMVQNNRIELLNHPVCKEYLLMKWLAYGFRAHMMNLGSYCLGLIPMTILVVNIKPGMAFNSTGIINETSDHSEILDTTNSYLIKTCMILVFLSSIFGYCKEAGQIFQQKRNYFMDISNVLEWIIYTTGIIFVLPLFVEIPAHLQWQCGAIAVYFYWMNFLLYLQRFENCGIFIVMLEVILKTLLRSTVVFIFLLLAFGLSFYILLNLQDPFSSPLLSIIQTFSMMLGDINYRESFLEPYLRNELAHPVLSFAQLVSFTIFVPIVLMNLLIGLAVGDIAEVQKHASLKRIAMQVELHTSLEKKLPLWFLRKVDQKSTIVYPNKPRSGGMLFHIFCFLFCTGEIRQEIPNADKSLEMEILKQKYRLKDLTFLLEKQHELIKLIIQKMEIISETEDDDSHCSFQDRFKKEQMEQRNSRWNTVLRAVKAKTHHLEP

Row | SMILES | Activity [1] | EC50 [2] [µM] | inhibition [3] [%] | Activity [4] | Activity [5]
1 | Cc1nn2c(O)cc(C3CCN(C(=O)OCc4ccccc4)CC3)nc2c1-c1ccc(F)cc1 | inactive | 3.91 | 35 | inactive | inactive
2 | Cc1nn2c(O)cc(C3CCN(C(=O)OCc4ccccc4)CC3)nc2c1-c1ccc(Cl)cc1 | inactive | 7.79 |  | inactive | inactive
3 | CCOC(=O)N1CCC(c2cc(O)n3nc(C)c(-c4ccc(F)cc4)c3n2)CC1 | inactive | 4.66 | 22 | inactive | inactive
4 | CCOC(=O)N1CCC(c2cc(O)n3nc(C)c(-c4ccc(C(F)(F)F)cc4)c3n2)CC1 | inactive |  | 17 | inactive | inactive
